≈ marks a conversion by molar mass, not a printed value.
Columns and labels:
[1] = design: method as in PMID 30663371; conditions: limonoid from Meliaceae; cited from earlier work
[2] = Cytotoxicity assay (resazurin) on RAW 264.7 macrophages; assay type: cell-based, murine; conditions: mouse, RAW 264.7 macrophage cells; RAW 264.7 macrophages, 48 h incubation, resazurin; read-out: Cytotoxicity on RAW 264.7 Cells CC50 ± SD
Method: The murine macrophage RAW 264.7 cell line was grown in DMEM (Dulbecco’s modified Eagle’s medium) containing 1% penicillin-streptomycin, 1% nonessential amino acids (NEA), and 10% HIFBS at 37 °C, and 5% CO2 in a humidified environment. A reverse Etaluma fluorescence microscope was used to view the cells every day, and the growth media was replaced every 72 h. At 80% confluence, cells were isolated using 0.25% Trypsine-EDTA (Gibco, MT, USA).
The murine macrophages, RAW 264.7 cells, were plated into a 96-well cell culture treated flat-bottomed plate ([…], Inc., Newton, NC 28658, USA) at a density of 10 × 10^4 cells/100 μL/well and incubated overnight to enable cell adhesion. A fresh complete medium containing serially diluted concentrations of crude extract, fractions, and compounds was used to replace the previous medium. The final assay concentration values for extracts/fractions and compounds varied from 400 μg/mL to 0.8 μg/mL and 100–0.16 μg/mL, respectively. Podophyllotoxin (Sigma-Aldrich, Munich, Germany) was used as a positive control at a maximum dose of 10 μM. After 48 h of incubation, 10 μL of resazurin solution (0.15 mg/mL dissolved in PBS) was added to each well, and the plates were incubated for an additional 4 h. Fluorescence data were finally recorded with a Magellan Infinite M200 plate reader (Tecan, Germany) at excitation and emission wavelengths of 530 nm and 590 nm, respectively.
(§1) The resulting fluorescence readings were used to calculate the growth inhibition percentages relative to the negative control for each sample and for each of the tested doses. GraphPad Prism 8.0 software was used to generate concentration-response curves from the nonlinear regression fit to determine the median inhibitory or cytotoxic concentration (IC50/CC50). The resistance index (RI) for antiplasmodial tests was calculated as the ratio between the samples’ IC50 values for the chloroquine-sensitive strain 3D7 and the multiresistant strain Dd2 [69]. Inhibitors with an RI value below 1 were considered to act preferentially on the resistant strain. Based on each inhibitor’s antiparasitic efficacy (IC50) and cell toxicity (CC50), selectivity indices (SI) were calculated [SI = CC50 (RAW)/IC50 (Parasites)]. Samples were classified as poorly toxic to RAW cells if their SI values were greater than 10 [70].

[3] = test system: chloroquine-sensitive 3D7 strain of Plasmodium falciparum (Pf3D7); assay: Antiplasmodial SYBR Green I fluorescence assay, Pf3D7 strain; assay type: cell-based; conditions: 3D7, Pf3D7 strain, ring stage, 72 h, read-out: Antiplasmodial Activity Pf3D7 IC50 ± SD
Source text: (§2) The parasite strains used in this study are continuously cultured at the Antimicrobial and Biocontrol Agents Unit of the University of Yaoundé I, and were graciously provided by BEI Resources (https://www.beiresources.org (accessed on 16 February 2019)). They comprise the Leishmania donovani strain (1S(MHOM/SD/62/1S), the multiresistant (PfDd2), and the chloroquine-sensitive (Pf3D7-(MRA-102)) strains of Plasmodium falciparum. RPMI 1640 media supplemented with 0.2% sodium bicarbonate (Sigma Aldrich, Billings, MT, USA), 0.5% Albumax II (Gibco), 1% hypoxanthine 100X (Gibco, Billings, MT, USA), 25 mM HEPES, and 0.04% gentamicin (Sigma Aldrich) was used to sustain P. falciparum strains in sterile petri dishes. Fresh red blood cells from healthy O^+ human volunteers were also added to the medium. These cells were suspended at 4% hematocrit (v/v) and incubated at 37 °C in a humidified environment with 5% CO2. To regularly maintain the culture, fresh medium was added to the culture every day. Thin blood smears stained with 10% Giemsa were used to microscopically monitor cell-cycle transition and parasitemia under immersion oil.
(§3) The antiplasmodial efficacy of the samples was evaluated using the SYBR Green I-based fluorescence assay, as previously reported by Smilkstein et al., on a sorbitol-synchronized ring stage culture of Plasmodium falciparum (PfDd2 and Pf3D7 strains). The test relies on the development of intense fluorescence following SYBR green binding to the exposed DNA found in wells containing healthy cells. Ninety microliters of parasites prepared with 1% hematocrit and 2% parasitemia and 10 μL of test sample extracts, fractions, isolated chemicals, chloroquine, and artemisinin were each added in triplicate into wells of a flat-bottomed microplate. The final test concentration values for the samples varied from 50 μg/mL-0.08 μg/mL and 100 μg/mL-0.16 μg/mL for extract/fractions. Following a 72 h incubation at 37 °C, 100 μL of SYBR Green I solution prepared with lysis buffer (0.2 μL of 10,000 SYBR Green I per mL of lysis buffer) made of EDTA (5 mM), Tris (20 mM; pH 7.5), Triton X-100 (0.08%; v/v), and saponin (0.008%; m/v) was added to each well. Fluorescence measurements were taken using an Infinite M200 microplate reader (Tecan, MT, USA) at emission and excitation wavelengths of 538 and 485 nm, respectively.
as §1

[4] = test system: multidrug-resistant Dd2 strain of Plasmodium falciparum (PfDd2); assay: Antiplasmodial SYBR Green I fluorescence assay, PfDd2 strain; assay type: cell-based
Source text: as §2, §3, §1

[5] = test system: promastigote form of Leishmania donovani (1S(MHOM/SD/62/1S)); assay: Antileishmanial resazurin-based assay on promastigotes; assay type: cell-based
Method: A T-75 cm^2 cell culture flask was filled with complete Medium 199 [M199 supplemented with 10% heat-inactivated fetal bovine serum (HIFBS) and 100 IU/mL penicillin/streptomycin (Sigma, Darmstadt, Germany)] and used to grow the promastigote forms of Leishmania donovani. Every 72 h, flasks were subcultured and incubated at 28 °C.
The resazurin-based assay was used to evaluate the antileishmanial activity of the extract (100 μg/mL–0.16 μg/mL), major fractions (100 μg/mL–0.16 μg/mL), and isolated compounds (50 μg/mL–0.08 μg/mL) against the promastigote form of Leishmania donovani. Briefly, 10 μL of inhibitors at various triplicate doses (as prescribed for the antiplasmodial assay) were added to 90 μL of promastigotes from a logarithmic phase culture at a density of 4.10^5 parasites/mL. The plates were incubated for 28 h at 28 °C, and 10 μL of resazurin solution (Sigma, Darmstadt, Germany) was added. Amphotericin B (Sigma, Darmstadt, Germany) (10 μg–0.016 μg/mL) and 0.1% DMSO-treated wells were used as the […], respectively. After a further 44 h of incubation, plates were read using a Magelan Infinite M200 fluorescence plate reader (Tecan, Männedorf, Switzerland) at excitation and emission wavelengths of 530 and 590 nm, respectively.
as §1

[6] = test system: promastigote; design: method as in PMID 24949478; conditions: isolate from Canarium patentinervium; cited from earlier work
[7] = design: method as in PMID 36249737, PMID 20162079; conditions: 400 mg/kg; from leaf extract of Osyris quadripartita; cited from earlier work
[8] = design: method as in PMID 30663371; conditions: limonoid from Meliaceae; cited from earlier work; remark: listed apart in the source

In the case of `CC(=O)O[C@@H]1C[C@H]2C(C)(C)OC(=O)C=C[C@]2(C)[C@H]2CC[C@@]3(C)[C@@H](c4ccoc4)OC(=O)[C@H]4O[C@]43[C@@]21C` [7α-obacunyl acetate], the “IC50, antiplasmodial activity” value [1] is listed as 5.14 µg/mL.

For `Oc1cc(O)c2c(c1)O[C@H](c1ccc(O)c(O)c1)[C@@H](O)C2` [Catechin (9), catechin], the CC50 at 48 h [2] was over 400 µg/mL, the IC50 [3] was 111.96 ± 0.04 µg/mL (≈ 386 µM) and the “Antiplasmodial Activity PfDd2 IC50 ± SD” value ([4]; PfDd2 strain, ring stage, 72 h) was 2.93 ± 0.02 µg/mL. The IC50 ([4]; Plasmodium falciparum, DD2, 72 h, read-out: Antiplasmodial Activity PfDd2 IC50 ± SD, PfDd2 strain, ring stage, 72 h) was 2.95 µg/mL (≈ 10.2 µM), the IC50 ([5]; Leishmania donovani, L. donovani promastigotes, 28 °C, read-out: Antileishmanial Activity IC50 ± SD) was 27 ± 0.7 µg/mL (≈ 92.9 µM) and the “Antileishmanial Selectivity (SI)” value ([5]; SI = CC50 against macrophages/IC50 against promastigotes) was over 14.83. For the same compound, the “IC50, antipromastigote activity” value [6] was 478.93 ± 0.28 µg/mL (≈ 1650 µM) and the “antimalarial effect, suppression value” [7] was 64.26%.

For trigilgianin, the “IC50, antileishmanial activity” value [8] is listed as 6.044 µg/mL.

— publication PMC10609173, “Antiplasmodial and Antileishmanial Activities of a New Limonoid and Other Constituents from the Stem Bark of Khaya senegalensis” (Molecules, 2023)
